Literature values, collected in patent publication US20250375404A1, “AN ORODISPERSIBLE PHARMACEUTICAL COMPOSITION OF BACLOFEN AND ITS PROCESS OF PREPARATION” (NOVUMGEN LIMITED, priority 2022, published 2025).

Details: in vivo

Absorption from the gastro-intestinal tract: rapidly and completely absorbed
Structure (SMILES): NCC(CC(=O)O)c1ccc(Cl)cc1 (stereo not shown) [Baclofen]
